Data reported in patent US9024012B2, “Methods to treat mixtures of glycosides to obtain one or more of these glycosides in more pure form” (Cargill, Incorporated, priority 2010, dated 2015).

How the values were obtained:
[1] = type: physicochemical
Experimental: Without wishing to be bound, it is believed that separation is more favored at higher temperatures at least in part due to factors including conformational changes as well as solubility differences that are a function of temperature. At room temperature, the solubility of Reb B in a 94 weight percent ethanol solution saturated with Reb A is about 0.3 g per 100 g of solvent, and the solubility of Reb D is about 0.01 g per 100 g. At 100° C., concentrations of Reb D as high as 0.2 g/100 g are observed, and concentrations of Reb B as high as 0.5 g/100 g are observed. The solubility of Reb A in 94 wt % ethanol varies to a much smaller extent.

[2] = relative to sucrose; background statement; cited from earlier work

concentrations observed in solution [1] [g/100 g]	solubility [1]	Molecule	sweetness, times the sweetness of sucrose [2]
≤ 0.2	about 0.01 g per 100 g of solvent	C=C1C[C@@]23CC[C@H]4[C@@](C)(CCC[C@@]4(C)C(=O)O[C@@H]4O[C@H](CO)[C@@H](O)[C@H](O)[C@H]4O[C@@H]4O[C@H](CO)[C@@H](O)[C@H](O)[C@H]4O)[C@@H]2CC[C@]1(O[C@@H]1O[C@H](CO)[C@@H](O)[C@H](O[C@@H]2O[C@H](CO)[C@@H](O)[C@H](O)[C@H]2O)[C@H]1O[C@@H]1O[C@H](CO)[C@@H](O)[C@H](O)[C@H]1O)C3 [Reb D, rebaudioside D]	–
–	–	C=C1C[C@@]23CC[C@H]4[C@@](C)(CCC[C@@]4(C)C(=O)O[C@@H]4O[C@H](CO)[C@@H](O)[C@H](O)[C@H]4O)[C@@H]2CC[C@]1(O[C@@H]1O[C@H](CO)[C@@H](O)[C@H](O[C@@H]2O[C@H](CO)[C@@H](O)[C@H](O)[C@H]2O)[C@H]1O[C@@H]1O[C@H](CO)[C@@H](O)[C@H](O)[C@H]1O)C3 [Rebaudioside A, rebaudioside A]	250-450 times
≤ 0.5	about 0.3 g per 100 g of solvent	rebaudioside B [Reb B]	–
